Test [1] concerns S. aureus CVCC 546. Briefly: Potassium ion (K+) leakage. The class given is cell-based, Staphylococcus aureus. The conditions noted are these: 1 × MIC, treated for 150 min, 0.9% saline, 10^8 CFU/mL, ICP, n = 3. As to the method: To further investigate the effects of peptides on membrane integrity, K^+ leakage determination was carried out as previously described ([Miao et al., 2016]). Briefly, S. aureus CVCC 546 cells were centrifuged, washed, and resuspended in 0.9% sterile saline. The cell suspension (10^8 CFU/mL) was treated with peptides at 1 × MIC. Cells untreated and treated with DLP4 or nisin were used as blank and positive controls. At time intervals of 30, 60, 90, 120, and 150 min, the suspensions were centrifuged at 12000 rpm for 5 min. The supernatants were then subjected to measurement by Agilent inductively coupled plasma optical emission (ICP-OES).

In test [2] the test system is S. aureus CVCC 546. Put plainly: Post-antibiotic effect (PAE). The class given is cell-based, Staphylococcus aureus. The settings on record: 2 × MIC, 2 h exposure, mean ± SD, n = 3. The method, then:
The PAE was determined by exposing S. aureus cells to antimicrobial agent at 1×, 2×, or 4 × MIC for 2 h. After drug removal by dilution, the bacterial culture was incubated at 37°C and 250 rpm. An aliquot of samples (50 μL) were taken for CFU counts at different time intervals until bacterial cultures became turbid. Bacteria treated with DLP4 or vancomycin and left without treatment were used as the positive and blank controls, respectively. The PAE was calculated using the following formula: PAE = T − C, where T is the time for the CFU counts to increase by 10-fold above the count observed immediately after drug removal, and C is the corresponding time for the untreated control ([Oh et al., 2019]).

A further test relates to S. suis CVCC 3928. Put plainly: MIC, microtiter plate assay. Format: cell-based, Streptococcus suis. The settings on record: 37°C, 16∼20 h, triplicate. As to the method:
(§1) The minimal inhibitory concentration (MIC) was evaluated by a microtiter plate assay ([Wiegand et al., 2008]). Serial 2-fold dilutions of test peptides were placed into a 96-well plate containing identical bacterial inoculum and incubated at 37°C for 16∼20 h. Vancomycin was used as antibiotic control. The MIC value was defined as the lowest peptide concentration where no visible growth occurred. All tests were made in triplicate.

The test system of another test is E. coli K88. Put plainly: MIC, microtiter plate assay. The class given is cell-based, Escherichia coli. The conditions noted are these: 37°C, 16∼20 h, triplicate. The method, then: as §1
The subject of the next test is S. enteritidis CVCC 3377. Briefly: MIC, microtiter plate assay. The class given is cell-based, Salmonella enteritidis. The conditions noted are these: 37°C, 16∼20 h, triplicate. As to the method: as §1
For test [3], the system named is Staphylococcus aureus CVCC 546. Briefly: microbe, parasite or virus in culture. Format: cell-based. In outline: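 Each strain was exposed to two-fold serial dilutions of peptide in a plate assay. After incubation for 16∼20 h at 37°C, wells were scored for growth, and the MIC was recorded as the lowest concentration lacking visible growth.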

≈ marks a conversion by molar mass, not a printed value. Peptide text beside a SMILES is read from it.

Turning to `CC[C@H](C)[C@@H]1NC(=O)[C@@H]2CSSC[C@@H](C(=O)N[C@@H](CCCNC(=N)N)C(=O)N[C@@H](CCCCN)C(=O)O)NC(=O)[C@H](CC(N)=O)NC(=O)[C@@H]3CSSC[C@H](NC(=O)[C@H](C)NC(=O)[C@H](C)NC(=O)[C@H](Cc4c[nH]cn4)NC(=O)CNC(=O)[C@H](C(C)C)NC(=O)[C@H](CCCCN)NC(=O)[C@H](Cc4ccccc4)NC(=O)[C@@H]4CCCN4C(=O)[C@H](CO)NC(=O)[C@H](CC(C)C)NC(=O)[C@H](CC(C)C)NC(=O)[C@H](CC(=O)O)NC(=O)[C@@H](NC(=O)[C@@H](NC(=O)[C@H](C)N)[C@@H](C)O)CSSC[C@H](NC(=O)[C@H](Cc4c[nH]c5ccccc45)NC(=O)CNC(=O)CNC(=O)[C@H](CCCNC(=N)N)NC(=O)[C@H](CCCCN)NC(=O)CNC(=O)[C@H](CCCNC(=N)N)NC(=O)[C@H](C)NC1=O)C(=O)N[C@@H](CC(=O)O)C(=O)NCC(=O)N[C@@H](CCCNC(=N)N)C(=O)N[C@@H](C)C(=O)N[C@@H](C(C)C)C(=O)N3)C(=O)N[C@@H](C)C(=O)N[C@@H](C)C(=O)N[C@@H](Cc1c[nH]cn1)C(=O)N2` [ID13] (HELM PEPTIDE1{A.T.C.D.L.L.S.P.F.K.V.G.H.A.A.C.A.A.H.C.I.A.R.G.K.R.G.G.W.C.D.G.R.A.V.C.N.C.R.K}$PEPTIDE1,PEPTIDE1,3:R3-30:R3|PEPTIDE1,PEPTIDE1,16:R3-36:R3|PEPTIDE1,PEPTIDE1,20:R3-38:R3$$$V2.0; N-terminus and C-terminus assumed), the “level of released K+” value in the test on S. aureus CVCC 546 [1] is 0.81 mg/L. In the test on S. aureus CVCC 546 [2], this compound showed a PAE of 12.78 ± 0.28 h. For the same compound, the MIC against S. suis CVCC 3928 is 0.95 µM (≈ 3.99 µg/mL); against E. coli K88, above 30.50 µM; with S. enteritidis CVCC 3377 it was above 30.50 µM; in test [3] (Table 1, – = no activity), 4; in test [3] (microtiter, 37°C, 16∼20 h, triplicate), 0.95 µM (≈ 3.99 µg/mL).

Source of the values: publication PMC7291858, “An Enhanced Variant Designed From DLP4 Cationic Peptide Against Staphylococcus aureus CVCC 546” (Frontiers in Microbiology, 2020).
